Columns and labels:
[1] = test system: human granulosa/luteal cells; experiment: progesterone secretion of human granulosa/luteal cells; type: cell-based; conditions: 5-hour incubation, 1 μM
Description: Luteal cell cultures are an established test method for the paracrine effect of steroids. Such cells are not available from humans, since all surgical procedures in which biopsies can be taken are always performed at the follicular phase to avoid the risk of an undetected pregnancy. However, these granulosa/luteal cells become available in the course of in vitro fertilization programs and are maintained in culture, and they behave very much like luteal cells in terms of receptor population and secretory function. An estrogenic effect of vitex agnus castus was tested with this human in vitro testing system. […] FIG. 5: […] The * indicates a significant deviation from the (culture) medium control. FIG. 6 summarizes the effect of vitex agnus castus extracts upon progesterone secretion under this testing system after a 5-hour incubation.

[2] = test system: porcine luteal cells; experiment: progesterone secretion of porcine luteal cells; type: cell-based; conditions: anti-estrogen alone
Description: To reinforce this conclusion, the cells were incubated with vitex agnus castus extract along with the anti-estrogen tamoxifen.

Structure (SMILES)	effect on progesterone secretion [1]	effect on progesterone excretion, tamoxifen alone [2]
C[C@]12CC[C@@H]3c4ccc(O)cc4CC[C@H]3[C@@H]1CC[C@H]2O [17-alpha estradiol, estradiol 17-alpha]	no effect	
CC/C(=C(\c1ccccc1)c1ccc(OCCN(C)C)cc1)c1ccccc1 [tamoxifen]		without effect
